Target: T1, human OX2R (Homo sapiens, UniProt O43614)
T1 construct: expressed in transfected cells; host or cells: CHO (Chinese hamster ovary) cells, grown under G418 selection
T1 sequence (O43614 1-444): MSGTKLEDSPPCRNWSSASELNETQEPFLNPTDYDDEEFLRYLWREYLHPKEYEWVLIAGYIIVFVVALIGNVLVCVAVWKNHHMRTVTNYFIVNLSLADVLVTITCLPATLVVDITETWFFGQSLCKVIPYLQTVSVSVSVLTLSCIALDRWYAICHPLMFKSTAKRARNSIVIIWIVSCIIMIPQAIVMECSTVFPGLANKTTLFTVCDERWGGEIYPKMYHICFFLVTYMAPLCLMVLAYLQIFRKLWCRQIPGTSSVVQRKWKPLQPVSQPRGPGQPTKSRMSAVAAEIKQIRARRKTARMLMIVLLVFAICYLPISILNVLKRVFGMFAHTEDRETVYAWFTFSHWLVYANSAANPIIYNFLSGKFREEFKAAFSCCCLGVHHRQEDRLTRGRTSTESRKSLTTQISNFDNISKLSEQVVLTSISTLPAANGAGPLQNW
Assay: IP-One (IPOne) orexin receptor agonist assay in CHO cells expressing human OX2R
Format: cell-based
Settings: for EC50: CHO cells expressing human OX2R, IP-One IP-1 detection, 2 hours incubation, four parameter logistic fit, read-out: OX2R Potency, EC50; for % of reference agonist maximal effect: human OX2R, percentage of sample raw value/mean max effect (reference compound at 1 uM with 100% activity)
In short: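 CHO cells stably expressing human OX2R were stimulated with compound (10-point ½-log dilutions) for 2 h at 37 °C. IP-1 accumulation was read by HTRF (IP-One, 665/620 nm). EC50 from a four-parameter fit; % effect relative to 1 μM reference agonist control.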

| Structure (SMILES) | EC50 | % of reference agonist maximal effect |
| --- | --- | --- |
| COCC[C@H](N)C(=O)N1CCC[C@H](c2cc[nH]n2)[C@@H]1COC1CCC(C(C)C)CC1 (stereo partly drawn) [Example 72, (S)-2-amino-1-((CIS)-2-((((CIS)-4-isopropylcyclohexyl)oxy)methyl)-3-(1H-pyrazol-3-yl)piperidin-1-yl)-4-methoxybutan-1-one] | 3.11 µM | 99.5% |
| C#CCOC(=O)N1CCC[C@H](c2cc[nH]n2)[C@@H]1CO[C@H]1CC[C@@H](c2ccccc2)CC1 (relative stereo) [Example 100, prop-2-yn-1-yl (CIS)-2-((((CIS)-4-phenylcyclohexyl)oxy)methyl)-3-(1H-pyrazol-3-yl)piperidine-1-carboxylate] | 2.36 µM | 61.8% |
| CC(C)[C@H]1CC[C@@H](OC[C@H]2[C@@H](c3cc[nH]n3)CCCN2C(=O)NCc2ccccc2)CC1 (relative stereo) [Example 122, (CIS)-N-benzyl-2-((((CIS)-4-isopropylcyclohexyl)oxy)methyl)-3-(1H-pyrazol-3-yl)piperidine-1-carboxamide] | 2.42 µM | 93.6% |
| CCNC(=O)N1CCC[C@H](c2cc[nH]n2)[C@@H]1CO[C@H]1CC[C@@H](c2ccccc2)CC1 (single isomer, unassigned) [Example 18, (CIS)-N-ethyl-2-((((CIS)-4-phenylcyclohexyl)oxy)methyl)-3-(1H-pyrazol-3-yl)piperidine-1-carboxamide] | 0.0547 µM | 98.8% |
| CCNC(=O)N1CC[C@H](c2cc[nH]n2)[C@@H]1CO[C@H]1CC[C@@H](c2ccccc2)CC1 (relative stereo) [Example 28, (CIS)-N-ethyl-2-((((CIS)-4-phenylcyclohexyl)ox)methyl)-3-(1H-pyrazol-3-yl)pyrrolidine-1-carboxamide] | 5.96 µM | 22.9% |
| O=C(NC1COC1)N1CCC[C@H](c2cc[nH]n2)[C@@H]1CO[C@H]1CC[C@@H](c2ccccc2)CC1 (relative stereo) [Example 127, (CIS)-N-(oxetan-3-yl)-2-((((CIS)-4-phenylcyclohexyl)oxy)methyl)-3-(1H-pyrazol-3-yl)piperidine-1-carboxamide] | 4.38 µM | 72% |
| COC(=O)N1[C@H](C)CC(c2ccn[nH]2)[C@@H]1CO[C@H]1CC[C@@H](c2ccccc2)CC1 (stereo partly drawn) [Example 37, Methyl (2R,5R)-5-methyl-2-((((CIS)-4-phenylcyclohexyl)oxy)methyl)-3-(1H-pyrazol-5-yl)pyrrolidine-1-carboxylate] | 5.11 µM | 85.3% |
